According to patent US6806230B1, “Pyrimidine derivatives and herbicides containing them” (Kumiai Chemical Industry Co., Ltd., priority 1999, dated 2004):

What was measured:
[1] = tested on: monochoria (Mo); assay: Test Example 1: herbicidal effects by flooded paddy field treatment; format: in vivo; design: herbicidal effects, Mo (monochoria):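 0-5 growth inhibition grade; 5 = over 90%; 4 = 70-90%; 3 = 50-70%; 2 = 30-50%; 1 = 10-30%; 0 = under 10%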; settings: for Herbicidal effect index, Mo: dose 100 gai/10a, examined on 21st day after treatment, index 0-5 per Table 44; for herbicidal effects, Mo (monochoria): dose 100 g active ingredient per 10 ares, examined on the 21st day after treatment, standards of Table 44;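 for Herbicidal effect index, Mo: 0-5 growth inhibition grade; 5 = over 90%; 4 = 70-90%; 3 = 50-70%; 2 = 30-50%; 1 = 10-30%; 0 = under 10%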
In short: (§1)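 Flooded paddy pre-emergence test: sowing into puddled soil under 3 cm water, then dropwise water-surface treatment the following day with diluted wettable powder at 100 g active ingredient per 10 ares. Greenhouse cultivation followed, and weeds were rated against a standard scale at 21 days.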

[2] = tested on: green foxtail (Se); assay: Test Example 2: herbicidal effects by upland soil treatment; format: in vivo; settings: dose 100 g active ingredient per 10 ares, examined on the 21st day after treatment, standards of Table 44;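 note: 0-5 growth inhibition grade; 5 = over 90%; 4 = 70-90%; 3 = 50-70%; 2 = 30-50%; 1 = 10-30%; 0 = under 10%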
In short: (§2)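 Pre-emergence test: barnyard grass and green foxtail sown in upland soil, then soil surface sprayed with wettable-powder formulation at 100 g active ingredient per 10 ares (100 l per 10 ares). Grown in greenhouse; herbicidal effect scored on a rating scale 21 days after treatment.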

[3] = tested on: rice (Or); assay: Test Example 4: selectivity for a crop plant by flooded paddy field treatment; format: in vivo; design: scale not given here; settings: rice transplanted at second leaf stage; for Or (effect on crop plant rice, index): dose 25 g active ingredient per 10 ares, examined on the 21st day after treatment
In short: (§3)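 Steps: fill pot with paddy soil and puddle; sow weed seeds; transplant rice at second-leaf stage; flood to 3 cm. Next day, drip the water-diluted wettable powder onto the water (25 g a.i./10 ares). Grow in greenhouse and rate herbicidal effect on day 21.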

[4] = tested on: monochoria (Mo); assay: as above; format: in vivo; design: scale not given here; settings: for Mo (herbicidal effects, index): dose 25 g active ingredient per 10 ares, examined on the 21st day after treatment
In short: as §3

[5] = tested on: barnyard grass (Eo); assay: as above; format: in vivo; design: scale not given here; settings: for Eo (herbicidal effects, index): dose 25 g active ingredient per 10 ares, examined on the 21st day after treatment
In short: as §3

[6] = tested on: barnyard grass (Ec); assay: Test Example 3: herbicidal effects by foliage treatment in upland field; format: in vivo; design: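 0-5 growth inhibition grade; 5 = over 90%; 4 = 70-90%; 3 = 50-70%; 2 = 30-50%; 1 = 10-30%; 0 = under 10%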; settings: dose 100 g active ingredient per 10 ares, examined on the 14th day after treatment
In short: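 Barnyard grass and green foxtail were grown in upland soil for 2 weeks in a greenhouse. A water-diluted wettable powder was sprayed over the foliage at 100 l per 10 ares, giving 100 g active ingredient per 10 ares. Herbicidal effect was scored on day 14 after treatment.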

[7] = tested on: corn (Ze); assay: Test Example 5: selectivity for a crop plant by soil treatment in upland field; format: in vivo; design: scale not given here; settings: dose 25 gai/10a, 21st day after treatment, index per Table 44
Method: (§4) In a 80 cm^2 plastic pot, upland soil was filled, and seeds of barnyard grass (Ec), green foxtail (Se), soybean (G1), wheat (Tr) and corn (Ze) were sown and covered with soil. A wettable powder prepared in accordance with Formulation Example 1 was diluted with water and uniformly applied to the soil surface by a small size spray at a rate of 100 l per 10 ares so that the dose of the active ingredient would be 25 g per 10 ares. Thereafter, cultivation was carried out in a green house, and on the 21st day after the treatment, the herbicidal effects were examined in accordance with the standards of Table 44.

[8] = tested on: wheat (Tr); assay: as above; format: in vivo; design: scale not given here; settings: dose 25 gai/10a, 21st day after treatment, index per Table 44
Method: as §4

[9] = tested on: barnyard grass (Ec); assay: as above; format: in vivo; design: scale not given here; settings: dose 25 gai/10a, 21st day after treatment, index per Table 44
Method: as §4

[10] = tested on: soybean (G1); assay: as above; format: in vivo; design: scale not given here; settings: dose 25 gai/10a, 21st day after treatment, index per Table 44
Method: as §4

[11] = tested on: barnyard grass (Eo); assay: Test Example 1: herbicidal effects by flooded paddy field treatment; format: in vivo; design: herbicidal effects, Eo (barnyard grass):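 0-5 growth inhibition grade; 5 = over 90%; 4 = 70-90%; 3 = 50-70%; 2 = 30-50%; 1 = 10-30%; 0 = under 10%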; settings: for Herbicidal effect index, Eo: dose 100 gai/10a, examined on 21st day after treatment, index 0-5 per Table 44; for herbicidal effects, Eo (barnyard grass): dose 100 g active ingredient per 10 ares, examined on the 21st day after treatment, standards of Table 44;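 for Herbicidal effect index, Eo: 0-5 growth inhibition grade; 5 = over 90%; 4 = 70-90%; 3 = 50-70%; 2 = 30-50%; 1 = 10-30%; 0 = under 10%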
In short: as §1

[12] = tested on: barnyard grass (Ec); assay: Test Example 2: herbicidal effects by upland soil treatment; format: in vivo; design: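 0-5 growth inhibition grade; 5 = over 90%; 4 = 70-90%; 3 = 50-70%; 2 = 30-50%; 1 = 10-30%; 0 = under 10%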; settings: dose 100 g active ingredient per 10 ares, examined on the 21st day after treatment; for herbicidal effects, Ec (barnyard grass): standards of Table 44
In short: as §2

CN(C(=O)Cc1ccc(F)cc1)C(c1cncnc1C(F)(F)F)C(C)(C)C (racemic) [Compound 1-53]
Herbicidal effect index, Mo [1]: 5 | herbicidal effects, Se (green foxtail) [2]: 5 | Or (effect on crop plant rice, index) [3]: 1 | Mo (herbicidal effects, index) [4]: 5 | Eo (herbicidal effects, index) [5]: 5 | Ec (herbicidal effects, index) [6]: 4 | Ze (herbicidal effect index on crop) [7]: 0 | Tr (herbicidal effect index on crop) [8]: 2 | Ec (herbicidal effect index) [9]: 4 | Gl (herbicidal effect index on crop) [10]: 1 | Herbicidal effect index, Eo [11]: 5 | herbicidal effects, Ec (barnyard grass) [12]: 5

CN(C(=O)Cc1ccc(Cl)cc1)C(c1cncnc1C(F)(F)F)C(C)(C)C (racemic) [Compound 1-54]
Herbicidal effect index, Mo [1]: 5 | herbicidal effects, Se (green foxtail) [2]: 5 | Or (effect on crop plant rice, index) [3]: 1 | Mo (herbicidal effects, index) [4]: 5 | Eo (herbicidal effects, index) [5]: 5 | Ec (herbicidal effects, index) [6]: 5 | Ze (herbicidal effect index on crop) [7]: 0 | Tr (herbicidal effect index on crop) [8]: 1 | Ec (herbicidal effect index) [9]: 4 | Gl (herbicidal effect index on crop) [10]: 0 | Herbicidal effect index, Eo [11]: 5 | herbicidal effects, Ec (barnyard grass) [12]: 5

Cc1ccc(CC(=O)N(C)C(c2cncnc2C(F)(F)F)C(C)(C)C)cc1 (racemic) [Compound 1-55]
Herbicidal effect index, Mo [1]: 5 | herbicidal effects, Se (green foxtail) [2]: 5 | Or (effect on crop plant rice, index) [3]: 1 | Mo (herbicidal effects, index) [4]: 5 | Eo (herbicidal effects, index) [5]: 5 | Ec (herbicidal effects, index) [6]: 4 | Ze (herbicidal effect index on crop) [7]: 0 | Tr (herbicidal effect index on crop) [8]: 1 | Ec (herbicidal effect index) [9]: 5 | Gl (herbicidal effect index on crop) [10]: 1 | Herbicidal effect index, Eo [11]: 5 | herbicidal effects, Ec (barnyard grass) [12]: 5

CCN(C(=O)Cc1ccc(C)cc1)C(c1cncnc1C(F)(F)F)C(C)C (racemic) [Compound 1-61]
Herbicidal effect index, Mo [1]: 5 | herbicidal effects, Se (green foxtail) [2]: 5 | Or (effect on crop plant rice, index) [3]: 1 | Mo (herbicidal effects, index) [4]: 5 | Eo (herbicidal effects, index) [5]: 5 | Ec (herbicidal effects, index) [6]: 4 | Ze (herbicidal effect index on crop) [7]: 0 | Tr (herbicidal effect index on crop) [8]: 3 | Ec (herbicidal effect index) [9]: 5 | Gl (herbicidal effect index on crop) [10]: 1 | Herbicidal effect index, Eo [11]: 5 | herbicidal effects, Ec (barnyard grass) [12]: 5

CC(C)C(c1cncnc1C1CC1)N(C)C(=O)Cc1ccc(Cl)cc1 (racemic) [Compound 1-78]
Herbicidal effect index, Mo [1]: 5 | herbicidal effects, Se (green foxtail) [2]: 5 | Or (effect on crop plant rice, index) [3]: 1 | Mo (herbicidal effects, index) [4]: 5 | Eo (herbicidal effects, index) [5]: 5 | Ec (herbicidal effects, index) [6]: 5 | Ze (herbicidal effect index on crop) [7]: 0 | Tr (herbicidal effect index on crop) [8]: 1 | Ec (herbicidal effect index) [9]: 5 | Gl (herbicidal effect index on crop) [10]: 0 | Herbicidal effect index, Eo [11]: 5 | herbicidal effects, Ec (barnyard grass) [12]: 5

CC(C)C(c1cncnc1C(F)(F)F)N(C(=O)Cc1ccc(Cl)cc1)C1CC1 (racemic) [Compound 1-81]
Herbicidal effect index, Mo [1]: 5 | herbicidal effects, Se (green foxtail) [2]: 5 | Or (effect on crop plant rice, index) [3]: 0 | Mo (herbicidal effects, index) [4]: 5 | Eo (herbicidal effects, index) [5]: 5 | Ec (herbicidal effects, index) [6]: 4 | Ze (herbicidal effect index on crop) [7]: 0 | Tr (herbicidal effect index on crop) [8]: 1 | Ec (herbicidal effect index) [9]: 4 | Gl (herbicidal effect index on crop) [10]: 0 | Herbicidal effect index, Eo [11]: 5 | herbicidal effects, Ec (barnyard grass) [12]: 5

CC(C)C(c1cncnc1C(F)(F)F)N(C(=O)Cc1ccc(F)cc1)C1CC1 (racemic) [Compound 1-83]
Herbicidal effect index, Mo [1]: 5 | herbicidal effects, Se (green foxtail) [2]: 5 | Or (effect on crop plant rice, index) [3]: 1 | Mo (herbicidal effects, index) [4]: 5 | Eo (herbicidal effects, index) [5]: 5 | Ec (herbicidal effects, index) [6]: 5 | Ze (herbicidal effect index on crop) [7]: 1 | Tr (herbicidal effect index on crop) [8]: 2 | Ec (herbicidal effect index) [9]: 5 | Gl (herbicidal effect index on crop) [10]: 1 | Herbicidal effect index, Eo [11]: 5 | herbicidal effects, Ec (barnyard grass) [12]: 5

Cc1ccc(CC(=O)N(C)C(c2cncnc2C)C(C)C)cc1 (racemic) [Compound 1-89]
Herbicidal effect index, Mo [1]: 5 | herbicidal effects, Se (green foxtail) [2]: 5 | Or (effect on crop plant rice, index) [3]: 0 | Mo (herbicidal effects, index) [4]: 5 | Eo (herbicidal effects, index) [5]: 5 | Ec (herbicidal effects, index) [6]: 5 | Ze (herbicidal effect index on crop) [7]: 2 | Tr (herbicidal effect index on crop) [8]: 2 | Ec (herbicidal effect index) [9]: 4 | Gl (herbicidal effect index on crop) [10]: 0 | Herbicidal effect index, Eo [11]: 5 | herbicidal effects, Ec (barnyard grass) [12]: 5

CCN(C(=O)Cc1ccc(C#N)cc1)C(c1cncnc1C(F)(F)F)C(C)C (racemic) [Compound 1-98]
Herbicidal effect index, Mo [1]: 5 | herbicidal effects, Se (green foxtail) [2]: 5 | Or (effect on crop plant rice, index) [3]: 1 | Mo (herbicidal effects, index) [4]: 5 | Eo (herbicidal effects, index) [5]: 5 | Ec (herbicidal effects, index) [6]: 4 | Ze (herbicidal effect index on crop) [7]: 1 | Tr (herbicidal effect index on crop) [8]: 1 | Ec (herbicidal effect index) [9]: 4 | Gl (herbicidal effect index on crop) [10]: 0 | Herbicidal effect index, Eo [11]: 5 | herbicidal effects, Ec (barnyard grass) [12]: 5

CC(C(=O)N(C)C(c1cncnc1C(=O)O)C(C)C)c1ccc(Cl)cc1 (single isomer, unassigned) [Compound 1-718, 5-(1-{[2-(4-chlorophenyl)-propionyl]methylamino}-2-methylpropyl)-pyrimidine-4-carboxylic acid]
melting point: 168 to 170 °C

CC(C)C(c1cncnc1C(F)(F)F)N(C)C(=O)N(C)c1ccccc1 (centres unmarked) [Compound 1-424, 1,3-dimethyl-1-[2-methyl-1-(4-trifluoromethyl-pyrimidin-5-yl)-propyl]-3-phenylurea]
herbicidal effects, Mo (monochoria) [1]: 5 | Ec (herbicidal effects, index) [6]: 4 | herbicidal effects, Eo (barnyard grass) [11]: 5 | Ec (herbicidal effects, index) [12]: 5 | melting point: 104 to 105 °C

CC(C)C(c1cncnc1C=NO)N(C)C(=O)Cc1ccccc1 (centres unmarked) [Compound 1-500, N-[1-(4-hydroxyiminomethylpyrimidin-5-yl)-2-methylpropyl]-N-methylphenylacetamide]
herbicidal effects, Mo (monochoria) [1]: 5 | herbicidal effects, Eo (barnyard grass) [11]: 5 | melting point: 171 to 172 °C

CC(C)C(c1cncnc1C#N)N(C)C(=O)Cc1ccccc1 (centres unmarked) [Compound 1-504, N-[1-(4-cyanopyrimidin-5-yl)-2-methylpropyl]-N-methylphenylacetamide]
herbicidal effects, Mo (monochoria) [1]: 5 | Or (herbicidal effect index on crop) ([3]; dose 25 gai/10a, 21st day after treatment, index per Table 44): 1 | Mo (herbicidal effect index) ([4]; monochoria, dose 25 gai/10a, 21st day after treatment, index per Table 44): 5 | Eo (herbicidal effect index) ([5]; barnyard grass, dose 25 gai/10a, 21st day after treatment, index per Table 44): 5 | Ec (herbicidal effects, index) [6]: 5 | herbicidal effects, Eo (barnyard grass) [11]: 5 | Ec (herbicidal effects, index) [12]: 5 | melting point: 80 to 81 °C

CC(C)C(c1cncnc1C(F)(F)F)N(C)C(=O)Cc1ccccn1 (centres unmarked) [Compound 2-3, N-methyl-N-[2-methyl-1-(4-trifluoromethylpyrimidin-5-yl)propyl]-2-pyridylacetamide]
herbicidal effects, Mo (monochoria) [1]: 5 | herbicidal effects, Eo (barnyard grass) [11]: 5 | melting point: 99 to 100 °C
